Test results as given in PubChem BioAssay AID328 (DTP/NCI, 2004).
Values joined by “and” are separate entries in the source; they are usually repeats but may differ in a detail not shown here. Equal values may be shown once. Toxic doses and inconclusive results are not listed.

Tested on: BDF1 mice, P388 leukemia ip, median survival T/C
Experiment: NCI In Vivo Anticancer Drug Screen. Data for tumor model P388 Leukemia (intraperitoneal) in B6D2F1 (BDF1) mice
Details: endpoint: median survival time, higher = longer survival
Summary of the method: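 Steps: implant the tumour, treat one group with compound and another with vehicle, record survival, then divide treated by control.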

[1] = dose: 100.0 mg/kg/injection, schedule: Q01DX001 (ip), vehicle: saline with Tween-80
[2] = dose: 100.0 mg/kg/injection, schedule: Q01DX001 (ip), vehicle: saline
[3] = dose: 50.0 mg/kg/injection, schedule: Q01DX009 (ip), vehicle: saline
[4] = dose: 100.0 mg/kg/injection, schedule: Q04DX003 (ip), vehicle: saline
[5] = dose: 200.0 mg/kg/injection, schedule: Q04DX003 (ip), vehicle: saline
[6] = dose: 50.0 mg/kg/injection, schedule: Q01DX009 (ip), vehicle: saline with Tween-80
[7] = dose: 100.0 mg/kg/injection, schedule: Q01DX009 (ip), vehicle: saline with Tween-80
[8] = dose: 200.0 mg/kg/injection, schedule: Q01DX009 (ip), vehicle: saline with Tween-80
[9] = dose: 100.0 mg/kg/injection, schedule: Q01DX009 (ip), vehicle: Klucel (hydroxypropylcellulose) (HPC)
[10] = dose: 100.0 mg/kg/injection, schedule: Q04DX003 (ip), vehicle: Klucel (hydroxypropylcellulose) (HPC)
[11] = dose: 200.0 mg/kg/injection, schedule: Q01DX009 (ip), vehicle: Klucel (hydroxypropylcellulose) (HPC)
[12] = dose: 200.0 mg/kg/injection, schedule: Q04DX003 (ip), vehicle: Klucel (hydroxypropylcellulose) (HPC)
[13] = dose: 400.0 mg/kg/injection, schedule: Q01DX009 (ip), vehicle: Klucel (hydroxypropylcellulose) (HPC)
[14] = dose: 400.0 mg/kg/injection, schedule: Q04DX003 (ip), vehicle: Klucel (hydroxypropylcellulose) (HPC)
[15] = dose: 400.0 mg/kg/injection, schedule: Q04DX003 (ip), vehicle: saline
[16] = dose: 50.0 mg/kg/injection, schedule: Q01DX009 (ip), vehicle: Klucel (hydroxypropylcellulose) (HPC)
[17] = dose: 100.0 mg/kg/injection, schedule: Q01DX009 (ip), vehicle: saline sonified
[18] = dose: 200.0 mg/kg/injection, schedule: Q01DX009 (ip), vehicle: saline sonified
[19] = dose: 25.0 mg/kg/injection, schedule: Q04DX003 (ip), vehicle: saline with Tween-80
[20] = dose: 50.0 mg/kg/injection, schedule: Q04DX003 (ip), vehicle: saline with Tween-80
[21] = dose: 100.0 mg/kg/injection, schedule: Q04DX003 (ip), vehicle: saline with Tween-80
[22] = dose: 200.0 mg/kg/injection, schedule: Q04DX003 (ip), vehicle: saline with Tween-80
[23] = dose: 25.0 mg/kg/injection, schedule: Q01DX009 (ip), vehicle: saline with Tween-80

With N#C/C(=C\c1ccc(O)cc1)c1ccc([N+](=O)[O-])cc1 the T/C (dose: 25.0 mg/kg/injection, schedule: Q01DX001 (ip), vehicle: saline) was 98 % of control, the T/C (dose: 50.0 mg/kg/injection, schedule: Q01DX001 (ip), vehicle: saline) was 100 % of control and the T/C [1] was 97 % of control. The T/C [2] was 96 % of control.

In the case of NNC(=O)NC(=O)NN, the T/C [3] is reported as 104 % of control, the T/C [4] is reported as 113 % of control and the T/C [5] is reported as 113 % of control.

O=C(NC(Cc1ccccc1)C(=O)Oc1ccc(Cl)cc1)OCc1ccccc1 (configuration not stated) was tested, and the T/C (dose: 100.0 mg/kg/injection, schedule: Q04DX002 (ip), vehicle: saline with Tween-80) was 101 % of control, the T/C (dose: 200.0 mg/kg/injection, schedule: Q04DX002 (ip), vehicle: saline with Tween-80) was 94 % of control and the T/C (dose: 400.0 mg/kg/injection, schedule: Q04DX002 (ip), vehicle: saline with Tween-80) was 100 % of control and 91 % of control.

CNCc1c2c(O)c3c(O)c(C)c4c(c3c1O)C(=O)C(C)(O/C=C/C(OC)C(C)C(OC(C)=O)C(C)C(O)C(C)C(O)C(C)/C=C/C=C(/C)C(=O)N2)O4 (configuration not stated) was tested, and the T/C [6] was 100 % of control, the T/C [7] was 89 % of control and the T/C [8] was 116 % of control.

With CCOC(=O)C(/C=N/C(N)=O)=C(\C)O the T/C [9] was 87 % of control, the T/C [10] was 100 % of control and the T/C [11] was 95 % of control. For the same compound, the T/C [12] was 95 % of control, the T/C [13] was 87 % of control and the T/C [14] was 95 % of control.

For COC(=O)C1CCN1C(C)(C)C (configuration not stated), the T/C [4] was 100 % of control, the T/C [5] was 90 % of control and the T/C [15] was 90 % of control.

For O=c1ccc(=O)c2c(=O)c3ccccc3c(=O)c1=2, the T/C (dose: 25.0 mg/kg/injection, schedule: Q01DX009 (ip), vehicle: Klucel (hydroxypropylcellulose) (HPC)) was 104 % of control, the T/C [16] was 103 % of control and the T/C (dose: 50.0 mg/kg/injection, schedule: Q04DX003 (ip), vehicle: Klucel (hydroxypropylcellulose) (HPC)) was 95 % of control. For the same compound, the T/C [9] was 99 % of control, the T/C [10] was 104 % of control and the T/C [12] was 88 % of control.

Cn1cnnc1N was tested, and the T/C [2] was 100 % of control, the T/C (dose: 200.0 mg/kg/injection, schedule: Q01DX001 (ip), vehicle: saline) was 95 % of control and the T/C (dose: 400.0 mg/kg/injection, schedule: Q01DX001 (ip), vehicle: saline) was 104 % of control.

CC1CN=C(c2ccc(NC(=O)c3ccc(C(=O)Nc4ccc(C5=NCC(C)N5)cc4)c(N)c3)cc2)N1 (configuration not stated) was tested, and the T/C (dose: 6.7 mg/kg/injection, schedule: Q04DX003 (ip), vehicle: saline with Tween-80) was 150 % of control, the T/C (dose: 10.0 mg/kg/injection, schedule: Q04DX003 (ip), vehicle: saline with Tween-80) was 163 % of control and the T/C (dose: 15.0 mg/kg/injection, schedule: Q04DX003 (ip), vehicle: saline with Tween-80) was 172 % of control and 177 % of control.

In the case of Cc1cc2nc3c(=O)[nH]c(=O)nc-3n(CCOC(=O)CCC(=O)O)c2cc1C, the T/C (dose: 50.0 mg/kg/injection, schedule: Q01DX009 (ip), vehicle: saline sonified) is reported as 100 % of control, the T/C [17] is reported as 100 % of control and the T/C [18] is reported as 118 % of control.

For Oc1ccccc1C1N=NC2=C(CCCC2)N1O (configuration not stated), the T/C [16] was 99 % of control and the T/C [9] was 93 % of control.

For O=C1CC(N2C(=O)c3ccccc3C2=O)C(=O)N1 (configuration not stated), the T/C [19] was 101 % of control, the T/C [20] was 103 % of control and the T/C [21] was 103 % of control. For the same compound, the T/C [22] was 99 % of control.

With O=[N+]([O-])c1ccc(N2CCN(CCO)CC2)c2nonc12 the T/C (dose: 15.0 mg/kg/injection, schedule: Q01DX009 (ip), vehicle: saline with Tween-80) was 100 % of control, the T/C [19] was 97 % of control and the T/C (dose: 30.0 mg/kg/injection, schedule: Q01DX009 (ip), vehicle: saline with Tween-80) was 97 % of control. For the same compound, the T/C [20] was 96 % of control.

With CCCC(=O)C(CC)C(O)(C(F)(F)F)C(F)(F)F (configuration not stated) the T/C [20] was 100 % of control, the T/C [21] was 104 % of control and the T/C [22] was 118 % of control.

In the case of CCCCS(=O)/C=C\C(=O)NCCC (configuration not stated), the T/C [23] is reported as 100 % of control, the T/C [6] is reported as 99 % of control and the T/C [7] is reported as 100 % of control.

With CCOC(=O)c1cccc2cccc(C(=O)OCC)c12 the T/C [23] was 106 % of control, the T/C [6] was 92 % of control and the T/C [7] was 114 % of control. For the same compound, the T/C [8] was 100 % of control.

With C(=N\Nc1nc2ccccc2s1)/c1ccc(/C=N/Nc2nc3ccccc3s2)cc1 the T/C [9] was 109 % of control, the T/C [10] was 104 % of control and the T/C [11] was 114 % of control. For the same compound, the T/C [12] was 100 % of control, the T/C [13] was 100 % of control and the T/C [14] was 104 % of control.

CC(C)(S)C(N)C(=O)O (configuration not stated) was tested, and the T/C [3] was 86 % of control, the T/C (dose: 100.0 mg/kg/injection, schedule: Q01DX009 (ip), vehicle: saline) was 90 % of control and the T/C [4] was 91 % of control. For the same compound, the T/C (dose: 200.0 mg/kg/injection, schedule: Q01DX009 (ip), vehicle: saline) was 90 % of control, the T/C [5] was 91 % of control and the T/C [15] was 100 % of control.

In the case of CCCCCCCCCCCCOP(N)(=O)OCCCCCCCCCCCC, the T/C (dose: 10.0 mg/kg/injection, schedule: Q01DX009 (ip), vehicle: Klucel (hydroxypropylcellulose) (HPC)) is reported as 103 % of control, the T/C (dose: 20.0 mg/kg/injection, schedule: Q01DX009 (ip), vehicle: Klucel (hydroxypropylcellulose) (HPC)) is reported as 106 % of control and the T/C (dose: 40.0 mg/kg/injection, schedule: Q01DX009 (ip), vehicle: Klucel (hydroxypropylcellulose) (HPC)) is reported as 106 % of control. For the same compound, the T/C [6] was 109 % of control, the T/C [7] was 113 % of control and the T/C [10] was 105 % of control. For the same compound, the T/C [21] was 109 % of control, the T/C [12] was 97 % of control and the T/C [22] was 109 % of control. The T/C [14] was 121 % of control.

CCCCNC(C)C1(O)Cc2c(O)c3c(c(O)c2C(OC2CC(N)C(O)C(C)O2)C1)C(=O)c1c(OC)cccc1C3=O (configuration not stated) was tested, and the T/C (dose: 10.0 mg/kg/injection, schedule: Q01DX009 (ip), vehicle: water) was 157 % of control, the T/C (dose: 20.0 mg/kg/injection, schedule: Q01DX009 (ip), vehicle: water) was 168 % of control and the T/C (dose: 25.0 mg/kg/injection, schedule: Q04DX003 (ip), vehicle: water) was 116 % of control. The T/C (dose: 40.0 mg/kg/injection, schedule: Q01DX009 (ip), vehicle: water) was 185 % of control, the T/C (dose: 50.0 mg/kg/injection, schedule: Q04DX003 (ip), vehicle: water) was 114 % of control and the T/C (dose: 100.0 mg/kg/injection, schedule: Q04DX003 (ip), vehicle: water) was 105 % of control. The T/C (dose: 200.0 mg/kg/injection, schedule: Q04DX003 (ip), vehicle: water) was 151 % of control and the T/C (dose: 400.0 mg/kg/injection, schedule: Q04DX003 (ip), vehicle: water) was 118 % of control.

With CC(=O)Nc1nncs1 the T/C [17] was 113 % of control and the T/C [18] was 109 % of control.

In the case of CC(C)(Br)C(=O)c1ccc([N+](=O)[O-])o1, the T/C (dose: 0.78 mg/kg/injection, schedule: Q01DX009 (ip), vehicle: water) is reported as 95 % of control, the T/C (dose: 1.56 mg/kg/injection, schedule: Q01DX009 (ip), vehicle: water) is reported as 89 % of control and the T/C (dose: 3.12 mg/kg/injection, schedule: Q01DX009 (ip), vehicle: saline) is reported as 116 % of control. For the same compound, the T/C (dose: 3.12 mg/kg/injection, schedule: Q01DX009 (ip), vehicle: water) was 87 % of control, the T/C (dose: 6.25 mg/kg/injection, schedule: Q01DX009 (ip), vehicle: saline) was 123 % of control and the T/C (dose: 6.25 mg/kg/injection, schedule: Q01DX009 (ip), vehicle: water) was 105 % of control. The T/C (dose: 12.5 mg/kg/injection, schedule: Q01DX009 (ip), vehicle: saline with Tween-80) was 95 % of control, the T/C (dose: 12.5 mg/kg/injection, schedule: Q01DX009 (ip), vehicle: water) was 104 % of control and the T/C [23] was 100 % of control. For the same compound, the T/C (dose: 25.0 mg/kg/injection, schedule: Q01DX009 (ip), vehicle: saline) was 116 % of control, the T/C [19] was 107 % of control and the T/C [6] was 95 % of control. The T/C [20] was 109 % of control, the T/C [7] was 87 % of control and the T/C [21] was 100 % of control.

For O=C(OC1CC2CCCC21)c1cc([N+](=O)[O-])cc([N+](=O)[O-])c1 (configuration not stated), the T/C [1] was 94 % of control, the T/C (dose: 200.0 mg/kg/injection, schedule: Q01DX001 (ip), vehicle: saline with Tween-80) was 97 % of control and the T/C (dose: 400.0 mg/kg/injection, schedule: Q01DX001 (ip), vehicle: saline with Tween-80) was 99 % of control.
